From ChEMBL document CHEMBL1201862, “PubChem BioAssay data set” (2004)
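Grown in 96-well plates, cells were treated for 48 hours with each compound at five concentrations. Insufficient inhibition: endpoint recorded as highest concentration tested. GI50: concentration for 50% inhibition of growth.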 Active and inactive are the calls of the source. Cut-off read from the data, not from the text of the source: active = GI50 up to about 1.1 µM and inactive = higher.

What was measured:
Test in all cases: growth of human tumour cells (NCI), 48 h
OVCAR-4 = test system: OVCAR-4
EKVX = test system: EKVX
SNB-19 = test system: SNB-19
HCT-116 = test system: HCT-116
LOX IMVI = test system: LOX IMVI
HOP-92 = test system: HOP-92
TK-10 = test system: TK-10
HL-60 = test system: HL-60
K562 = test system: K562
OVCAR-8 = test system: OVCAR-8
Malme-3M = test system: Malme-3M
SK-MEL-2 = test system: SK-MEL-2
UACC-257 = test system: UACC-257
786-0 = test system: 786-0
OVCAR-5 = test system: OVCAR-5
ACHN = test system: ACHN
CAKI-1 = test system: CAKI-1
A549 = test system: A549
SK-OV-3 = test system: SK-OV-3
IGROV-1 = test system: IGROV-1
RXF 393 = test system: RXF 393
SK-MEL-5 = test system: SK-MEL-5
SR = test system: SR
UACC-62 = test system: UACC-62
HT-29 = test system: HT-29
KM-20L2 = test system: KM-20L2
HCC 2998 = test system: HCC 2998
CCRF-CEM = test system: CCRF-CEM
OVCAR-3 = test system: OVCAR-3
HOP-62 = test system: HOP-62
M19-MEL = test system: M19-MEL
A498 = test system: A498
NCI-H226 = test system: NCI-H226
SK-MEL-28 = test system: SK-MEL-28
LXFL 529 = test system: LXFL 529
NCI-H23 = test system: NCI-H23
KM12 = test system: KM12
SNB-78 = test system: SNB-78
U-251 = test system: U-251
M14 = test system: M14
HCT-15 = test system: HCT-15
HOP-18 = test system: HOP-18
UO-31 = test system: UO-31
SF-539 = test system: SF-539
SF-295 = test system: SF-295
NCI-H522 = test system: NCI-H522
MOLT-4 = test system: MOLT-4
NCI-H460 = test system: NCI-H460
SNB-75 = test system: SNB-75
COLO 205 = test system: COLO 205
SF-268 = test system: SF-268
XF498 = test system: XF498
SN12C = test system: SN12C
DMS-273 = test system: DMS-273
DLD-1 = test system: DLD-1
RPMI-8226 = test system: RPMI-8226
SW-620 = test system: SW-620
DMS-114 = test system: DMS-114
NCI/ADR-RES = test system: NCI/ADR-RES
MCF7 = test system: MCF7

CN1C(c2ccccc2)CC(=O)C(N)C1c1ccccc1 (configuration not stated)
GI50 (OVCAR-4): 49.4 µM (inactive) | GI50 (EKVX): > 53 µM (inactive) | GI50 (SNB-19): 56.9 µM (inactive) | GI50 (HCT-116): 18 µM (inactive) | GI50 (LOX IMVI): 18 µM (inactive) | GI50 (HOP-92): 25.8 µM (inactive) | GI50 (TK-10): 43.7 µM (inactive) | GI50 (HL-60): 20.6 µM (inactive) | GI50 (K562): 30.6 µM (inactive) | GI50 (OVCAR-8): 26.8 µM (inactive) | GI50 (Malme-3M): 22.1 µM (inactive) | GI50 (SK-MEL-2): 19.4 µM (inactive) | GI50 (UACC-257): 30.3 µM (inactive) | GI50 (786-0): 31.3 µM (inactive) | GI50 (OVCAR-5): 35.4 µM (inactive) | GI50 (ACHN): 35.9 µM (inactive) | GI50 (CAKI-1): 28.3 µM (inactive) | GI50 (A549): 38.7 µM (inactive) | GI50 (SK-OV-3): > 58.6 µM (inactive) | GI50 (IGROV-1): 43.5 µM (inactive) | GI50 (RXF 393): 24.4 µM (inactive) | GI50 (SK-MEL-5): 18.8 µM (inactive) | GI50 (SR): 25 µM (inactive) | GI50 (UACC-62): 27.2 µM (inactive) | GI50 (HT-29): 23.9 µM (inactive) | GI50 (KM-20L2): 34.8 µM (inactive) | GI50 (HCC 2998): 20.8 µM (inactive) | GI50 (CCRF-CEM): 25.2 µM (inactive) | GI50 (OVCAR-3): 33.7 µM (inactive) | GI50 (HOP-62): > 92.5 µM (inactive) | GI50 (M19-MEL): 22.7 µM (inactive) | GI50 (A498): > 67.6 µM (inactive) | GI50 (NCI-H226): 39.4 µM (inactive) | GI50 (SK-MEL-28): 18.6 µM (inactive) | GI50 (LXFL 529): 17.6 µM (inactive) | GI50 (NCI-H23): 42.5 µM (inactive) | GI50 (KM12): 23.9 µM (inactive) | GI50 (SNB-78): 23.7 µM (inactive) | GI50 (U-251): 21.4 µM (inactive) | GI50 (M14): 26.6 µM (inactive) | GI50 (HCT-15): 26.1 µM | GI50 (HOP-18): 37.4 µM (inactive) | GI50 (UO-31): 25.5 µM (inactive) | GI50 (SF-539): 42.1 µM (inactive) | GI50 (SF-295): 48.9 µM (inactive) | GI50 (NCI-H522): 17 µM (inactive) | GI50 (MOLT-4): 20.1 µM (inactive) | GI50 (NCI-H460): 22.2 µM (inactive) | GI50 (SNB-75): 63.5 µM (inactive) | GI50 (COLO 205): 18.5 µM (inactive) | GI50 (SF-268): 38.2 µM (inactive) | GI50 (XF498): 14.7 µM (inactive) | GI50 (SN12C): 34.7 µM (inactive) | GI50 (DMS-273): 23.4 µM (inactive) | GI50 (DLD-1): 30.2 µM (inactive) | GI50 (RPMI-8226): 17.3 µM (inactive) | GI50 (SW-620): 19.9 µM (inactive)

CC(=O)NC(Cc1ccsc1)C(=O)O (configuration not stated)
GI50 (OVCAR-4): > 100 µM (inactive) | GI50 (EKVX): > 100 µM (inactive) | GI50 (SNB-19): > 100 µM (inactive) | GI50 (HCT-116): > 100 µM (inactive) | GI50 (LOX IMVI): > 100 µM (inactive) | GI50 (HOP-92): > 100 µM (inactive) | GI50 (HL-60): > 100 µM (inactive) | GI50 (K562): > 100 µM (inactive) | GI50 (OVCAR-8): > 100 µM (inactive) | GI50 (Malme-3M): > 100 µM (inactive) | GI50 (SK-MEL-2): > 100 µM (inactive) | GI50 (UACC-257): > 100 µM (inactive) | GI50 (OVCAR-5): > 100 µM (inactive) | GI50 (CAKI-1): > 100 µM (inactive) | GI50 (A549): > 100 µM (inactive) | GI50 (SK-OV-3): > 100 µM (inactive) | GI50 (IGROV-1): > 100 µM (inactive) | GI50 (RXF 393): > 100 µM (inactive) | GI50 (SK-MEL-5): > 100 µM (inactive) | GI50 (UACC-62): > 100 µM (inactive) | GI50 (HT-29): > 100 µM (inactive) | GI50 (KM-20L2): > 100 µM (inactive) | GI50 (HCC 2998): > 100 µM (inactive) | GI50 (CCRF-CEM): > 100 µM (inactive) | GI50 (OVCAR-3): > 100 µM (inactive) | GI50 (HOP-62): > 100 µM (inactive) | GI50 (M19-MEL): > 100 µM (inactive) | GI50 (A498): > 100 µM (inactive) | GI50 (DMS-114): > 100 µM (inactive) | GI50 (NCI-H226): > 100 µM (inactive) | GI50 (SK-MEL-28): > 100 µM (inactive) | GI50 (NCI-H23): > 100 µM (inactive) | GI50 (KM12): > 100 µM (inactive) | GI50 (SNB-78): > 100 µM (inactive) | GI50 (U-251): > 100 µM (inactive) | GI50 (HCT-15): > 100 µM | GI50 (HOP-18): > 100 µM (inactive) | GI50 (UO-31): > 100 µM (inactive) | GI50 (SF-539): > 100 µM (inactive) | GI50 (SF-295): > 62.2 µM (inactive) | GI50 (NCI/ADR-RES): > 100 µM (inactive) | GI50 (NCI-H522): > 100 µM (inactive) | GI50 (MOLT-4): > 100 µM (inactive) | GI50 (NCI-H460): > 100 µM (inactive) | GI50 (SNB-75): > 100 µM (inactive) | GI50 (COLO 205): > 100 µM (inactive) | GI50 (SF-268): > 100 µM (inactive) | GI50 (XF498): > 35.4 µM (inactive) | GI50 (SN12C): > 100 µM (inactive) | GI50 (DMS-273): > 100 µM (inactive) | GI50 (DLD-1): > 100 µM (inactive) | GI50 (MCF7): > 100 µM (inactive) | GI50 (RPMI-8226): > 100 µM (inactive) | GI50 (SW-620): > 100 µM (inactive)

CCOC(=O)C1Sc2ccccc2N=C1C (configuration not stated)
GI50 (OVCAR-4): > 100 µM (inactive) | GI50 (EKVX): > 100 µM (inactive) | GI50 (SNB-19): > 100 µM (inactive) | GI50 (HCT-116): > 100 µM (inactive) | GI50 (LOX IMVI): > 100 µM (inactive) | GI50 (HOP-92): > 100 µM (inactive) | GI50 (TK-10): > 100 µM (inactive) | GI50 (HL-60): > 100 µM (inactive) | GI50 (K562): > 100 µM (inactive) | GI50 (OVCAR-8): > 100 µM (inactive) | GI50 (Malme-3M): > 100 µM (inactive) | GI50 (SK-MEL-2): > 100 µM (inactive) | GI50 (UACC-257): > 100 µM (inactive) | GI50 (786-0): > 100 µM (inactive) | GI50 (OVCAR-5): > 100 µM (inactive) | GI50 (ACHN): > 100 µM (inactive) | GI50 (A549): > 100 µM (inactive) | GI50 (IGROV-1): > 100 µM (inactive) | GI50 (RXF 393): > 100 µM (inactive) | GI50 (SR): > 100 µM (inactive) | GI50 (HT-29): > 100 µM (inactive) | GI50 (KM-20L2): > 100 µM (inactive) | GI50 (HCC 2998): > 100 µM (inactive) | GI50 (OVCAR-3): > 100 µM (inactive) | GI50 (HOP-62): > 100 µM (inactive) | GI50 (M19-MEL): > 100 µM (inactive) | GI50 (A498): > 100 µM (inactive) | GI50 (DMS-114): > 100 µM (inactive) | GI50 (NCI-H226): > 100 µM (inactive) | GI50 (SK-MEL-28): > 100 µM (inactive) | GI50 (LXFL 529): > 100 µM (inactive) | GI50 (NCI-H23): > 100 µM (inactive) | GI50 (KM12): > 100 µM (inactive) | GI50 (SNB-78): > 100 µM (inactive) | GI50 (U-251): > 100 µM (inactive) | GI50 (HCT-15): > 100 µM | GI50 (HOP-18): > 100 µM (inactive) | GI50 (UO-31): > 100 µM (inactive) | GI50 (SF-539): > 100 µM (inactive) | GI50 (SF-295): > 100 µM (inactive) | GI50 (NCI-H522): > 100 µM (inactive) | GI50 (MOLT-4): > 100 µM (inactive) | GI50 (NCI-H460): > 100 µM (inactive) | GI50 (SNB-75): > 100 µM (inactive) | GI50 (COLO 205): > 100 µM (inactive) | GI50 (SF-268): > 100 µM (inactive) | GI50 (XF498): > 100 µM (inactive) | GI50 (SN12C): > 100 µM (inactive) | GI50 (DLD-1): > 100 µM (inactive) | GI50 (RPMI-8226): > 100 µM (inactive) | GI50 (SW-620): > 100 µM (inactive)
